{"source": "patent US20120263754A1", "about": "“Methods for Enhancing Immunogen Specific Immune Responses by Vectored Vaccines” (priority 2011, published 2012)", "system": "CD8 T cell response to the epitope AH1A5", "assay": "Adjuvant mixed with DC-NILV encoding AH1A5 and administered together subcutaneously; ICS/FACS", "format": "in vivo, BALB/c mice", "conditions": "adjuvant mixed with DC-NILV AH1A5 1 μg p24, s.c.; 4 or 20 μg GLA, 4 μg LPS; spleen cells day 10", "method": "FIG. 2 illustrates the effect of two adjuvants, GLA and lipopolysaccharide (LPS), on the immune response to the CD8 T cell epitope AH1A5. The lentiviral vector encoding AH1A5 (SinVarl FUW AH1A5 (1 μg p24)) was mixed with PBS (control group), 4 μg GLA, 20 μg GLA, or 4 μg LPS and then administered subcutaneously (s.c.) to groups of BALB/C mice. After 10 days, spleen cells were isolated from animals in each group, and the CD8 T cell response was evaluated by determining the level of TNF-α and IFN-γ by intracellular cytokine staining (ICS) followed by fluorescence activated cell sorting (FACS). The values shown are the mean percentage ±SEM of CD8 T cells that are positive for IFN-γ. Data are also shown from spleen cells obtained from mice that were not injected with the lentiviral vector (no LV).\nThe effect of two adjuvants, GLA and lipopolysaccharide (LPS), on the immune response to the CD8 T cell epitope AH1A5 was determined. DC-NILV encoding AH1A5 (1 μg p24) was mixed with PBS (control group), 4 μg GLA, 20 μg GLA, or 4 μg lipopolysaccaride (LPS) and then administered subcutaneously (s.c.) to groups of BALB/c mice. After 10 days, spleen cells were isolated from animals in each group, and the CD8 T cell response was evaluated by determining the level of TNF-α and IFN-γ by intracellular cytokine staining (ICS) followed by fluorescence activated cell sorting (FACS). […]"}
{"substance": "lipopolysaccharide [LPS]", "values": [{"measurement": "effect of coadministered adjuvant on vaccine-induced immune responses (CD8 T cells, TNF-α and IFN-γ)", "result": "inhibitory effect"}]}
